Laboratory results published in ChEMBL document CHEMBL5291721, “A preclinical secondary pharmacology resource illuminates target-adverse drug reaction associations of marketed drugs” (Nat Commun, 2023).

Columns and labels:
[1] = molecular target: Gamma-aminobutyric acid receptor subunit alpha-1/alpha-2/beta-2/gamma-2 (Homo sapiens, UniProt P14867+P18507+P47869+P47870); assay type: functional, cell-based
[2] = molecular target: T1, 5-hydroxytryptamine receptor 2A (Homo sapiens, UniProt P28223); assay type: functional, cell-based
T1 sequence (P28223 whole entry): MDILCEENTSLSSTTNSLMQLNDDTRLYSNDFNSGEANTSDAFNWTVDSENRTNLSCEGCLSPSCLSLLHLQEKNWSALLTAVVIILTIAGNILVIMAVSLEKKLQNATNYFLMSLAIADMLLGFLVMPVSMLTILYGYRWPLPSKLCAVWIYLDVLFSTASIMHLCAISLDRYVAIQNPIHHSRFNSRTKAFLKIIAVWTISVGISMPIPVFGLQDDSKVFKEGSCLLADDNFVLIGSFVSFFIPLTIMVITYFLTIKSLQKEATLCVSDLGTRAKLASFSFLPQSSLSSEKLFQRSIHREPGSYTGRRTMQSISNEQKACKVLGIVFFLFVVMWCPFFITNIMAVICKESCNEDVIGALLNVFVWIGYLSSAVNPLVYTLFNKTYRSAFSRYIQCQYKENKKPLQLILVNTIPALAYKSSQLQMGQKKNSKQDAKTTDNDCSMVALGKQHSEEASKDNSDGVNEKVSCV

[3] = molecular target: T1, 5-hydroxytryptamine receptor 2A; assay type: functional, cell-based; remark: listed apart in the source
[4] = molecular target: Sodium-dependent serotonin transporter (Homo sapiens, UniProt P31645)
Sequence of Sodium-dependent serotonin transporter (P31645 whole entry): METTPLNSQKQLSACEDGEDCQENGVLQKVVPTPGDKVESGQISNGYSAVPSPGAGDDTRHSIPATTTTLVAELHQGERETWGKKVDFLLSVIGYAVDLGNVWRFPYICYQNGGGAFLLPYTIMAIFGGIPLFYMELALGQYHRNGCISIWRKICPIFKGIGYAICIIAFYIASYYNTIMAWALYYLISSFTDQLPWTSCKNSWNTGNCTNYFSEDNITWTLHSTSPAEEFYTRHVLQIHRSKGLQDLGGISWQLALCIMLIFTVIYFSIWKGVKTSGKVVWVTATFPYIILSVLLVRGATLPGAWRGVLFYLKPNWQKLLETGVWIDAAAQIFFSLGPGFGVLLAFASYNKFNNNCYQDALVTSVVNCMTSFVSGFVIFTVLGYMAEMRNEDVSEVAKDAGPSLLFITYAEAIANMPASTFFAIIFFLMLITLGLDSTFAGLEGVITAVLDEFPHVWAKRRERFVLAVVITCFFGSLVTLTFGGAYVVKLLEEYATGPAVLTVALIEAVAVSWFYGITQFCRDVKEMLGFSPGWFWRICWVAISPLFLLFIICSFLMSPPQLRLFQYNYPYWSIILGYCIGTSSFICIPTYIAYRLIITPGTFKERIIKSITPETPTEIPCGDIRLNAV

Melanocortin receptor 4 = Melanocortin receptor 4 (Homo sapiens, UniProt P32245)
Sequence of Melanocortin receptor 4 (P32245 whole entry): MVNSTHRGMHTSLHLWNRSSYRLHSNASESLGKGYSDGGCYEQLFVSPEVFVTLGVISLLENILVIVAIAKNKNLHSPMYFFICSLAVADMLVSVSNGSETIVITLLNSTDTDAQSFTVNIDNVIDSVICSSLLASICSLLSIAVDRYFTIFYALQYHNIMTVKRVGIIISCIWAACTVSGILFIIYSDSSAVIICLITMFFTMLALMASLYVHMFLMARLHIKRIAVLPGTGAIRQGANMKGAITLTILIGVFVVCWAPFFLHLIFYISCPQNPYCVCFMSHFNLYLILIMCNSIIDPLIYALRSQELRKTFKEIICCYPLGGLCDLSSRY

[5] = molecular target: T2, 5-hydroxytryptamine receptor 1A (Homo sapiens, UniProt P08908)
T2 sequence (P08908 whole entry): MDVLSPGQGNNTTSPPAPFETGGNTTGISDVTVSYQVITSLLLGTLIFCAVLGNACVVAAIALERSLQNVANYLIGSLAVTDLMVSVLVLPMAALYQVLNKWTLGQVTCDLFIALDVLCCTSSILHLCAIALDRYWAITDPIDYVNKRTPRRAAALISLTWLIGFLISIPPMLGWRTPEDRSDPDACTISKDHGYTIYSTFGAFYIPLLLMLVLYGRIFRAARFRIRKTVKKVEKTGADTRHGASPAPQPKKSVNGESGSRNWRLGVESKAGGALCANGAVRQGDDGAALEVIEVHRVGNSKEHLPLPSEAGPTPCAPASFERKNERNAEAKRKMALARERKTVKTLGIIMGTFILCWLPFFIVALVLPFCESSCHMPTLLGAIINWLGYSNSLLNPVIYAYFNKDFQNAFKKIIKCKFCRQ

B1 bradykinin receptor = molecular target: T3, B1 bradykinin receptor (Homo sapiens, UniProt P46663)
T3 sequence (P46663 whole entry): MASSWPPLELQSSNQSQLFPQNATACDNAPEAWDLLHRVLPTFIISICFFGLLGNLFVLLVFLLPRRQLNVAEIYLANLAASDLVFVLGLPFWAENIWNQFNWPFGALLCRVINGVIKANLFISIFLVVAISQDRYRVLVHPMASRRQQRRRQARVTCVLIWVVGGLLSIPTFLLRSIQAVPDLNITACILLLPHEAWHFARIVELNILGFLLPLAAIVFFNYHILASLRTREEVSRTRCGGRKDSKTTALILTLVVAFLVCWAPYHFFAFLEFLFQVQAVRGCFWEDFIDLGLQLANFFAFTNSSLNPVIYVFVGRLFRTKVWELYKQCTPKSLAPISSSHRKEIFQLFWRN

[6] = molecular target: Beta-3 adrenergic receptor (Homo sapiens, UniProt P13945)
Sequence of Beta-3 adrenergic receptor (P13945 whole entry): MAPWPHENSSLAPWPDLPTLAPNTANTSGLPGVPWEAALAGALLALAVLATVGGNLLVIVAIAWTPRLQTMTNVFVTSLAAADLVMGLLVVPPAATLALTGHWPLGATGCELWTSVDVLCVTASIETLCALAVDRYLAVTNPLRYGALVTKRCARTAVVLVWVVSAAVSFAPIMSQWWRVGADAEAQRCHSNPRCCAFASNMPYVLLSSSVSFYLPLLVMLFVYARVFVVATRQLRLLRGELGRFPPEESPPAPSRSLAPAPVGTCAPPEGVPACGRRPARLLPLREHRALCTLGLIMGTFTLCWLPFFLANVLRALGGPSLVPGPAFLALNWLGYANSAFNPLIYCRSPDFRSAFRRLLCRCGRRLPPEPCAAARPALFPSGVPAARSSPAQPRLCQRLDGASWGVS

Glucagon receptor = Glucagon receptor (Homo sapiens, UniProt P47871)
Sequence of Glucagon receptor (P47871 whole entry): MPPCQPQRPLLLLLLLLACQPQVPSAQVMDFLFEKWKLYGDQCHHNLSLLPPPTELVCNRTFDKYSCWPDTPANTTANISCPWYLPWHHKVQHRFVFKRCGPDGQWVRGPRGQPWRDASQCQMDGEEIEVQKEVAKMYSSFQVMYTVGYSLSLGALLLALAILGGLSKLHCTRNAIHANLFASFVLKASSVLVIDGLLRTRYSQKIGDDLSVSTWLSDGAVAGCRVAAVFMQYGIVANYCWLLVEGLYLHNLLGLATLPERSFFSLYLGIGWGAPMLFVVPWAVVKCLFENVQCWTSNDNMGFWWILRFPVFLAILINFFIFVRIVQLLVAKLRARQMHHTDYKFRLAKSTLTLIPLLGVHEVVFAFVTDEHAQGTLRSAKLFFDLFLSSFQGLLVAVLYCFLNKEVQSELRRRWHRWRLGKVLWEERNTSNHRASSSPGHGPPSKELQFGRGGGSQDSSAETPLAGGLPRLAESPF

[7] = molecular target: T4, Neuropeptide Y receptor type 2 (Homo sapiens, UniProt P49146)
T4 sequence (P49146 whole entry): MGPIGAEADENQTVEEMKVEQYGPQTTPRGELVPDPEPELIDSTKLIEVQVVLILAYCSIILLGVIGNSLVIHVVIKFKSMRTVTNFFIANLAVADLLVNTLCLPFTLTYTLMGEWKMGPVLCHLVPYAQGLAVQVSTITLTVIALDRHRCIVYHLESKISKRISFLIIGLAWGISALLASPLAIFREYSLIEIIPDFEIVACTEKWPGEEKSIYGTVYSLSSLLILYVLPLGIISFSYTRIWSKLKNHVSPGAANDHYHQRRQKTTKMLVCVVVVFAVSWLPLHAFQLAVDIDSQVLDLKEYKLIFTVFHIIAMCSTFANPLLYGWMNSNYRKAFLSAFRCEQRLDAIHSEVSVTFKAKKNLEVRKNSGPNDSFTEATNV

[8] = molecular target: Neurotensin receptor type 1 (Homo sapiens, UniProt P30989)
Sequence of Neurotensin receptor type 1 (P30989 whole entry): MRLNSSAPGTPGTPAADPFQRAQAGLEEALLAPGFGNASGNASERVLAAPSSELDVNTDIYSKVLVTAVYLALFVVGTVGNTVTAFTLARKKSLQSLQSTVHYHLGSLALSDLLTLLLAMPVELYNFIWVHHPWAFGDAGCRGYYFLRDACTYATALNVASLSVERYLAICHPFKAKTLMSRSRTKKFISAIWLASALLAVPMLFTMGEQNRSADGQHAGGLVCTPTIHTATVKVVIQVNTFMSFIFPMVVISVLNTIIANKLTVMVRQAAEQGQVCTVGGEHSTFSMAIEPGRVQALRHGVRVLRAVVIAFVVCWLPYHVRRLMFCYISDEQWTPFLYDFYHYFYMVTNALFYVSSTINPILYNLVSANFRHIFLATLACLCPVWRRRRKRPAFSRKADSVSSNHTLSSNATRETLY

[9] = molecular target: T5, Corticotropin-releasing factor receptor 1 (Homo sapiens, UniProt P34998)
T5 sequence (P34998 whole entry): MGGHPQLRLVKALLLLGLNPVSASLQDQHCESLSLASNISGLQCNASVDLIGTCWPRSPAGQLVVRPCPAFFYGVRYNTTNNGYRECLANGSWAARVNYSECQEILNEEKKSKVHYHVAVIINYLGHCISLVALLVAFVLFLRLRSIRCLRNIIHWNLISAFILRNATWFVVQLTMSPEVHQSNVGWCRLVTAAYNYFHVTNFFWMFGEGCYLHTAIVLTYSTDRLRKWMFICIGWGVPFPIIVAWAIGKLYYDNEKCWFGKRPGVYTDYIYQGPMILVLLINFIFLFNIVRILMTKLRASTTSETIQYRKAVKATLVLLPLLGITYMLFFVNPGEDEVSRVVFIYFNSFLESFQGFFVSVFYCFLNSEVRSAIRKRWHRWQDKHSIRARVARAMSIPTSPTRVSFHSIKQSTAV

[10] = molecular target: T6, Endothelin receptor type B (Homo sapiens, UniProt P24530)
T6 sequence (P24530 whole entry): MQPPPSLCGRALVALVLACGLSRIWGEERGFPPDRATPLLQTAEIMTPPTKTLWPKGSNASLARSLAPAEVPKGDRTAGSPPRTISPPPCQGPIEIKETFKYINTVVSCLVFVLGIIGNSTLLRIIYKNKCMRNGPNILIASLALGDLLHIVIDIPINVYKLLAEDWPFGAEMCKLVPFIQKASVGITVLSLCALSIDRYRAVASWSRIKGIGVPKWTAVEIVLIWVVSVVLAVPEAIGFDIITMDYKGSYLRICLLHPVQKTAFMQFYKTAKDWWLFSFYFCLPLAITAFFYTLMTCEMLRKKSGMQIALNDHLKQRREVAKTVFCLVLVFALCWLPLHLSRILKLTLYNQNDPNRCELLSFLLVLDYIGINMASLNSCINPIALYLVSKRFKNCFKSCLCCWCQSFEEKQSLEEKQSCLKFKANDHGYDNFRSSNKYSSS

Substance-P receptor = Substance-P receptor (Homo sapiens, UniProt P25103)
Sequence of Substance-P receptor (P25103 whole entry): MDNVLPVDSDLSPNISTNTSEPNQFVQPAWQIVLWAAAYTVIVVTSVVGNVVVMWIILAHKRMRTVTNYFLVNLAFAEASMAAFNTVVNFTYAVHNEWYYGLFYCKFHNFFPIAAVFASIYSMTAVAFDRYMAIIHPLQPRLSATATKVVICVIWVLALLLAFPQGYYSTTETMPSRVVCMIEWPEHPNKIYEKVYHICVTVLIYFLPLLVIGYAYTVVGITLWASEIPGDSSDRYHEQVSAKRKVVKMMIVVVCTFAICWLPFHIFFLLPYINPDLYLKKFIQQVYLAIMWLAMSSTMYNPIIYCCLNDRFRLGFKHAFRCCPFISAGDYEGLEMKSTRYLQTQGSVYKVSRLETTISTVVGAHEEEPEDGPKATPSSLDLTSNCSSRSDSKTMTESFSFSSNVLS
Also: assay procedure not described here.

| Compound | AC50 [1] [µM] | AC50 [2] [µM] | AC50 [3] [µM] | AC50 [4] [µM] | AC50 (Melanocortin receptor 4) [µM] | AC50 [5] [µM] | AC50 (B1 bradykinin receptor) [µM] | AC50 [6] [µM] | AC50 (Glucagon receptor) [µM] | AC50 [7] [µM] | AC50 [8] [µM] | AC50 [9] [µM] | AC50 [10] [µM] | AC50 (Substance-P receptor) [µM] |
| --- | --- | --- | --- | --- | --- | --- | --- | --- | --- | --- | --- | --- | --- | --- |
| CC[C@@H](C(N)=O)N1CCCC1=O | > 30 | > 30 | > 30 | > 30 |  |  |  |  |  |  |  |  |  |  |
| CCC(CC)(CC(=O)Nc1cccc(/C=C/c2nc(C3CCC3)cs2)c1)C(=O)O |  |  |  | > 30 |  |  |  |  |  |  |  |  |  |  |
| CCCC1O[C@@H]2C[C@H]3[C@@H]4CCC5=CC(=O)C=C[C@]5(C)[C@H]4[C@@H](O)C[C@]3(C)[C@]2(C(=O)CO)O1 (stereo not given in full) [BUDESONIDE] |  |  |  |  | > 10 |  |  |  |  |  |  |  |  |  |
| C=CCN1C[C@H](C(=O)N(CCCN(C)C)C(=O)NCC)C[C@@H]2c3cccc4[nH]cc(c34)C[C@H]21 [CABERGOLINE] | > 30 | 0.0626 |  | 23.4 | > 10 | 0.073 |  |  |  |  |  |  |  |  |
| NC1CCN(c2c(F)cc3c(=O)c(C(=O)O)cn(C4CC4)c3c2Cl)C1 (stereo not given) [CLINAFLOXACIN] | > 300 |  |  |  |  |  |  |  |  |  |  |  |  |  |
| CN1CCN(C2=Nc3ccccc3Sc3ccc(Cl)cc32)CC1 [CLOTHIAPINE] | > 30 | > 30 | 1 |  |  |  |  |  |  |  |  |  |  |  |
| CN(C)CCC=C1c2ccccc2C=Cc2ccccc21 [CYCLOBENZAPRINE] |  |  |  |  | > 30 | 4.94 | > 30 | > 30 | > 30 | > 30 | > 30 | > 30 | > 30 |  |
| CCOc1ccc(Cc2cc([C@@H]3O[C@H](CO)[C@@H](O)[C@H](O)[C@H]3O)ccc2Cl)cc1 [DAPAGLIFLOZIN] |  |  |  |  | > 30 | > 10 |  | > 30 |  |  |  |  |  |  |
| CN(C)CC/C=C1\c2ccccc2CSc2ccccc21 [DOTHIEPIN] |  | > 30 | 4.8 |  |  |  |  |  |  |  |  |  |  |  |
| CC[C@H]1CN2CCc3cc(OC)c(OC)cc3[C@@H]2C[C@@H]1C[C@H]1NCCc2cc(OC)c(OC)cc21 [EMETINE] | > 30 |  |  |  |  |  |  |  |  |  |  |  |  |  |
| COc1ccc(C(=O)Nc2ccccc2CCC2CCCCN2C)cc1 (stereo not given) [ENCAINIDE] |  | > 30 | 2.2 | > 10 | > 30 | > 10 | > 30 | > 30 | > 30 | > 30 | > 30 | > 30 | > 30 | > 10 |
| O=[N+]([O-])O[C@@H]1CO[C@H]2[C@@H]1OC[C@@H]2O [ISOSORBIDE MONONITRATE] |  |  |  | > 10 | > 30 | > 10 | > 30 | > 30 | > 30 | > 30 | > 30 | > 30 | > 30 | > 10 |
| Cc1cc(C)c(NC(=O)CN(CC(=O)O)CC(=O)O)c(C)c1Br [MEBROFENIN] | > 30 | > 30 | > 30 |  |  |  |  |  |  |  |  |  |  |  |
| COc1ccccc1N1CCN(CC(O)COc2cccc3ccccc23)CC1 (stereo not given) [NAFTOPIDIL] |  | > 30 | 9.2 |  |  |  |  |  |  |  |  |  |  |  |
| COc1cc2nc(N3CCN(C(=O)c4ccco4)CC3)nc(N)c2cc1OC [PRAZOSIN] |  |  |  |  | > 30 |  | > 30 | > 30 | > 30 | > 30 | > 30 | > 30 | > 30 | > 10 |
| O=[N+]([O-])c1cn2c(n1)OC[C@@H](OCc1ccc(OC(F)(F)F)cc1)C2 [PRETOMANID] |  |  |  | > 10 | > 30 | > 10 | > 30 | > 30 | > 30 | > 30 | > 10 |  | > 30 | > 10 |
| Cc1oc(=O)oc1CN1CCN(c2cc3c(cc2F)c(=O)c(C(=O)O)c2n3C(C)S2)CC1 (stereo not given) [PRULIFLOXACIN] | > 30 | > 30 | > 30 |  |  |  |  |  |  |  |  |  |  |  |
| CCCCCNC(=N)N/N=C/c1c[nH]c2ccc(OC)cc12 [TEGASEROD] |  | > 30 | 1.5 | 3.47 | 5.34 | 0.169 | > 30 | 6.08 | > 30 | > 30 | > 30 | > 30 | > 30 | > 10 |
| COC1=C(OC)C(=O)C(C/C=C(\C)CC/C=C(\C)CC/C=C(\C)CC/C=C(\C)CC/C=C(\C)CC/C=C(\C)CC/C=C(\C)CC/C=C(\C)CC/C=C(\C)CCC=C(C)C)=C(C)C1=O [UBIDECARENONE] | > 30 | > 30 | > 30 |  |  |  |  |  |  |  |  |  |  |  |
| CCOc1ccccc1OCC1CNCCO1 (stereo not given) [VILOXAZINE] |  |  |  |  | > 30 | > 10 | > 30 | > 30 | > 30 | > 30 | > 30 | > 30 | > 30 | > 10 |
| CN(C)CCc1c[nH]c2ccc(C[C@H]3COC(=O)N3)cc12 [ZOLMITRIPTAN] | > 30 | 14 |  | > 30 |  |  |  |  |  |  |  |  |  |  |
